# Assay results published in PubChem BioAssay (NCI).
#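 GI50 = concentration required for 50% inhibition of growth. At the TGI there is no net growth.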
# How the values were obtained:
# Experiment in all cases: NCI-60 cell line screen, 384-well format
# SK-MEL-5 melanoma = test system: SK-MEL-5 melanoma
# CAKI-1 renal = test system: CAKI-1 renal
# MDA-MB-231 breast = test system: MDA-MB-231 breast
# A549 NSCLC = test system: A549 NSCLC
# PC-3 prostate = test system: PC-3 prostate
# ACHN renal = test system: ACHN renal
# MCF7 breast = test system: MCF7 breast
# NCI-H322M lung = test system: NCI-H322M lung
# EKVX NSCLC = test system: EKVX NSCLC
# HS 578T breast = test system: HS 578T breast
# HCT-15 colon = test system: HCT-15 colon
# NCI-H226 lung = test system: NCI-H226 lung
# OVCAR-8 ovarian = test system: OVCAR-8 ovarian
# A498 renal = test system: A498 renal
# SNB-75 CNS = test system: SNB-75 CNS
# SNB-19 CNS = test system: SNB-19 CNS
# IGROV1 ovarian = test system: IGROV1 ovarian
# BT-549 breast = test system: BT-549 breast
# NCI-H23 lung = test system: NCI-H23 lung
# SN12C renal = test system: SN12C renal
# SF-295 CNS = test system: SF-295 CNS
# MDA-MB-468 breast = test system: MDA-MB-468 breast
# T-47D breast = test system: T-47D breast
# KM12 colon = test system: KM12 colon
# M14 melanoma = test system: M14 melanoma
# K-562 leukemia = test system: K-562 leukemia
# COLO 205 colon = test system: COLO 205 colon
# NCI-H460 NSCLC = test system: NCI-H460 NSCLC
# SK-MEL-28 melanoma = test system: SK-MEL-28 melanoma
compound,measurement,setting,value
C[C@@H]1OCC2(CCN(c3cnc(Sc4ccnc(N)c4Cl)c(N)n3)CC2)[C@@H]1N,TGI,SK-MEL-5 melanoma,> 100 µM
same,GI50,CAKI-1 renal,0.426 µM
same,TGI,CAKI-1 renal,> 100 µM
same,GI50,MDA-MB-231 breast,> 100 µM
same,TGI,MDA-MB-231 breast,> 100 µM
same,GI50,A549 NSCLC,> 100 µM
same,TGI,A549 NSCLC,> 100 µM
same,GI50,PC-3 prostate,> 100 µM
same,TGI,PC-3 prostate,> 100 µM
same,GI50,ACHN renal,4.99 µM
same,TGI,ACHN renal,> 100 µM
same,GI50,MCF7 breast,> 100 µM
same,TGI,MCF7 breast,> 100 µM
same,GI50,NCI-H322M lung,0.234 µM
same,TGI,NCI-H322M lung,> 100 µM
same,GI50,EKVX NSCLC,16.5 µM
same,TGI,EKVX NSCLC,> 100 µM
same,GI50,HS 578T breast,> 100 µM
same,TGI,HS 578T breast,> 100 µM
same,GI50,HCT-15 colon,> 100 µM
same,TGI,HCT-15 colon,> 100 µM
same,GI50,NCI-H226 lung,1.18 µM
same,TGI,NCI-H226 lung,> 100 µM
same,GI50,OVCAR-8 ovarian,44.3 µM
same,TGI,OVCAR-8 ovarian,> 100 µM
same,GI50,A498 renal,4.18 µM
same,TGI,A498 renal,> 100 µM
same,GI50,SNB-75 CNS,51.2 µM
same,TGI,SNB-75 CNS,> 100 µM
same,GI50,SNB-19 CNS,> 100 µM
same,TGI,SNB-19 CNS,> 100 µM
same,GI50,IGROV1 ovarian,0.918 µM
same,TGI,IGROV1 ovarian,> 100 µM
same,GI50,BT-549 breast,35.1 µM
same,TGI,BT-549 breast,> 100 µM
same,GI50,NCI-H23 lung,0.0797 µM
same,TGI,NCI-H23 lung,44.2 µM
same,GI50,SN12C renal,3.87 µM
same,TGI,SN12C renal,> 100 µM
same,GI50,SF-295 CNS,> 100 µM
same,TGI,SF-295 CNS,> 100 µM
same,GI50,MDA-MB-468 breast,0.0533 µM
same,TGI,MDA-MB-468 breast,0.355 µM
same,GI50,T-47D breast,29.3 µM
same,TGI,T-47D breast,> 100 µM
same,GI50,KM12 colon,0.621 µM
same,TGI,KM12 colon,> 100 µM
same,GI50,M14 melanoma,> 100 µM
same,TGI,M14 melanoma,> 100 µM
same,GI50,K-562 leukemia,0.148 µM
same,TGI,K-562 leukemia,> 100 µM
same,GI50,COLO 205 colon,> 100 µM
same,TGI,COLO 205 colon,> 100 µM
same,GI50,NCI-H460 NSCLC,> 100 µM
same,TGI,NCI-H460 NSCLC,> 100 µM
same,GI50,SK-MEL-28 melanoma,> 100 µM
same,TGI,SK-MEL-28 melanoma,> 100 µM
